Test results published in patent publication US20190185417A1, “NOVEL ANTIBIOTICS” (priority 2016, published 2019).
Converted amounts (≈) assume the structure as drawn.

Assays:
Assay type in all cases: cell-based
[1] = system: Acinetobacter baumannii (ATCC 17978); assay: MIC by broth microdilution
Procedure: (§1) The antibacterial potency of the test article(s) was measured using the in vitro broth microdilution assay under assay conditions described by the Clinical and Laboratory Standards Institute. […] The test substance was dissolved in 100% DMSO, suspended completely by sonication or vortexing, diluted by 2-fold serial titrations in the same vehicle, for a total of 11 test concentrations. A 4 μL aliquot of each dilution was added to 196 μL of broth medium seeded with the organism suspension in wells of a 96 well plate (bacterial count: 2−8×10^5 colony forming units/mL final). The final volume was 200 μL in each well and the final DMSO concentration was 2 percent. Following incubation for 1 day at 36° C., the test plates were visually examined and wells were scored for growth or complete growth inhibition to define the minimum inhibitory concentration. Each test substance was evaluated in duplicate and the results were reported as the duplicate test values. Vehicle-control and an active reference agent were used as blank and positive controls, respectively. Microorganisms tested were Acinetobacter baumannii (ATCC 17978), Enterococcus faecalis (ATCC 29212), Enterococcus faecium VanA (ATCC 700221), Escherichia coli (ATCC 25922), Escherichia coli efflux defective DEL-tolC (JW5503), Heamophilus influenzae (ATCC 49247), Klebsiella pneumoniae (ATCC 43816), Pseudomonas aeruginosa (ATCC 27853), Pseudomonas aeruginosa MDR (NTUH-974), Staphylococcus aureus (ATCC 29213), Staphylococcus aureus MRSA (ATCC 33591) and Streptococcous pneumoniae (ATCC 46919). H. influenzae was grown in Haemophilus Test Medium and S. pneumoniae was grown in cation adjusted Muller-Hinton Broth II with 5% lysed horse blood. All other microorganisms were grown in cation adjusted Muller-Hinton Broth II.
(§2) The antibacterial potency of the test article(s) was measured using the in vitro broth microdilution assay under assay conditions described by the Clinical and Laboratory Standards Institute. […] The test substance was dissolved in 100% DMSO (unless stated below), suspended completely by sonication or vortexing, diluted by 2-fold serial titrations in the same vehicle, for a total of 11 test concentrations. A 4 μL aliquot of each dilution was added to 196 μL of broth medium seeded with the organism suspension in wells of a 96 well plate (bacterial count: 2−8×10^5 colony forming units/mL final). The final volume was 200 μL in each well and the final DMSO concentration was 2 percent. Following incubation, the test plates were visually examined and wells were scored for growth or complete growth inhibition to define the minimum inhibitory concentration. Each test substance was evaluated in duplicate and the results below are the duplicate test values. Vehicle-control and an active reference agent were used as blank and positive controls, respectively.

[2] = system: Pseudomonas aeruginosa, MDR (NTUH-974); assay: MIC by broth microdilution
Procedure: as §1, §2

[3] = system: Klebsiella pneumoniae (ATCC 43816); assay: MIC by broth microdilution
Procedure: as §1, §2

[4] = system: Pseudomonas aeruginosa (ATCC 27853); assay: MIC by broth microdilution
Procedure: as §1, §2

[5] = system: Escherichia coli (ATCC 25922); assay: MIC by broth microdilution
Procedure: as §1, §2

[6] = system: Escherichia coli, efflux defective DEL-tolC (JW5503); assay: MIC by broth microdilution
Procedure: as §1, §2

Gram-negative bacteria = assay: MIC by broth microdilution, overall statement in words; settings: Example 1, statement in words
Procedure: as §1, §2

[7] = system: Enterococcus faecalis (ATCC29212); assay: MIC by broth microdilution; settings: Table 1, Example 1
Procedure: as §1

[8] = system: Staphylococcus aureus (ATCC 29213); assay: MIC by broth microdilution; settings: Table 1, Example 1
Procedure: as §1

[9] = system: Staphylococcus aureus, MRSA (ATCC 33591); assay: MIC by broth microdilution; settings: Table 1, Example 1
Procedure: as §1

[10] = system: Enterococcus faecium, VanA (ATCC 700221); assay: MIC by broth microdilution; settings: Table 1, Example 1
Procedure: as §1

[11] = system: Haemophilus influenzae (ATCC 49247); assay: MIC by broth microdilution; settings: Table 2, Example 2
Procedure: as §2

[12] = system: Streptococcus pneumoniae (ATCC 49619); assay: MIC by broth microdilution; settings: Table 1, Example 1
Procedure: as §1

SMILES	MIC ([1]; Table 1, Example 1) [µg/mL]	MIC ([1]; Table 2, Example 2) [µg/mL]	MIC ([2]; Table 2, Example 2) [µg/mL]	MIC ([3]; Table 1, Example 1) [µg/mL]	MIC ([3]; Table 2, Example 2) [µg/mL]	MIC ([4]; Table 1, Example 1) [µg/mL]	MIC ([4]; Table 2, Example 2) [µg/mL]	MIC ([5]; Table 1, Example 1) [µg/mL]	MIC ([5]; Table 2, Example 2) [µg/mL]	MIC ([6]; Table 1, Example 1) [µg/mL]	MIC ([6]; Table 2, Example 2) [µg/mL]	activity against Gram-negative bacteria (Gram-negative bacteria)	MIC [7] [µg/mL]	MIC [8] [µg/mL]	MIC [9] [µg/mL]	MIC [10] [µg/mL]	MIC [11] [µg/mL]	MIC ([2]; Table 1, Example 1) [µg/mL]	MIC [12] [µg/mL]
C[N+](C)(C)Cc1ccc(/C=C/c2cc(/C=C/c3ccc(C[N+](C)(C)C)cc3)cc(/C=C/c3ccc(C[N+](C)(C)C)cc3)c2)cc1.[I-].[I-].[I-] [Compound 1]	128	128	>128	128	128	> 256	>128	64	64	32	32	active	128	32	16	128	>128	–	–
Nc1ccc(CCc2cc(CCc3ccc(N)cc3)cc(CCc3ccc(N)cc3)c2)cc1 [Compound 2 (TSB014)]	–	>32.0	>32.0	–	>32.0	–	>32.0	–	>32.0	–	>32.0	–	–	–	–	–	>32.0	–	–
CN(C)Cc1ccc(/C=C/c2cc(/C=C/c3ccc(CN(C)C)cc3)cc(/C=C/c3ccc(CN(C)C)cc3)c2)cc1 [Compound 2]	16 (≈ 28.8 µM)	16 (≈ 28.8 µM)	32 (≈ 57.6 µM)	16 (≈ 28.8 µM)	16 (≈ 28.8 µM)	64 (≈ 115 µM)	64 (≈ 115 µM)	8 (≈ 14.4 µM)	8 (≈ 14.4 µM)	4 (≈ 7.2 µM)	4 (≈ 7.2 µM)	active	4 (≈ 7.2 µM)	4 (≈ 7.2 µM)	4 (≈ 7.2 µM)	2 (≈ 3.6 µM)	>128	32 (≈ 57.6 µM)	32 (≈ 57.6 µM)
N#Cc1ccc(/C=C/c2cc(/C=C/c3ccc(C#N)cc3)cc(/C=C/c3ccc(C#N)cc3)c2)cc1 [Compound 3]	–	>128	>128	–	>128	–	>128	–	>128	–	>128	–	–	–	–	–	>128	–	–
N#Cc1ccc(CCc2cc(CCc3ccc(C#N)cc3)cc(CCc3ccc(C#N)cc3)c2)cc1 [Compound 4 (TSB064)]	–	>32.0	>32.0	–	>32.0	–	>32.0	–	>32.0	–	>32.0	–	–	–	–	–	>32.0	–	–
CN(C)C(=O)c1ccc(CCc2cc(CCc3ccc(C(=O)N(C)C)cc3)cc(CCc3ccc(C(=O)N(C)C)cc3)c2)cc1 [Compound 5 (TSB032)]	–	>32.0	>32.0	–	>32.0	–	>32.0	–	>32.0	–	>32.0	–	–	–	–	–	>32.0	–	–
NC(=O)c1ccc(CCc2cc(CCc3ccc(C(N)=O)cc3)cc(CCc3ccc(C(N)=O)cc3)c2)cc1 [Compound 6 (TSB030)]	–	>32.0	>32.0	–	>32.0	–	>32.0	–	>32.0	–	>32.0	–	–	–	–	–	>32.0	–	–
